Starred links: 1 amine or outer side, 2 acyl side, 3 side chain; linkers in the order of their positions; H or OH if unused. Residues, ends and D or L forms follow the SMILES beside them. Groups on a side chain read outwards from the residue. *: point of attachment. γGlu = O=C(O)[C@H](CCC(=O)[*:2])N[*:1]; Palmitoyl = CCCCCCCCCCCCCCCC(=O)*
Target: T1, Neuromedin U receptor 2 (NMUR2) (Homo sapiens, UniProt Q9GZQ4)
T1 construct: expressed in transfected cells; host or cells: HEK293 cells, transient calcium phosphate transfection; the empty-vector control is pcDNA3
T1 sequence (Q9GZQ4 whole entry): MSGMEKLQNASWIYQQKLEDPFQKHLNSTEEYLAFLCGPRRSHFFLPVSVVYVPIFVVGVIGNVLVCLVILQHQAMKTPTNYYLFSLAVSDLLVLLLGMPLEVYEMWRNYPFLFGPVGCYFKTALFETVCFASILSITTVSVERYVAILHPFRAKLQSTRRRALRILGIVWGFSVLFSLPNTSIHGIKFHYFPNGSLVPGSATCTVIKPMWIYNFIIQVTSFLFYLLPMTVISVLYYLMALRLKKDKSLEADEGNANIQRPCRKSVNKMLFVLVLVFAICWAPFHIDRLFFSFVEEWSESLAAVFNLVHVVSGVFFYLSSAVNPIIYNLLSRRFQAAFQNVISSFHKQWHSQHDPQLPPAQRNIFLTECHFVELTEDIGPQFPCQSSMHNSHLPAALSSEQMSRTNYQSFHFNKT
Test: Functional assay (IP3 SPA-ysi assay) in HEK293 cells transfected with NMUR2
Format: cell-based
Settings: HEK293 cells transiently transfected with NMUR2; head says cAMP, method describes IP3 SPA readout
Procedure: All compounds were dissolved in dimethyl sulfoxide (DMSO), and then water was added (total DMSO conc. was 80%). The stock concentration was 1 mM for all the compounds. Stocks were alliquoted and frozen -20°C.
The day before each assay a new standard row was prepared by dilution of the stock solution in assay buffer (1 mM acetic acid + 0.1% bovine serum albumin (BSA)). The following concentrations were prepared (depending on the ligand potency): 10^-5, 10^-6, 10^-7, 10^-7.5, 10^-8, 10^-8.5, 10^-9, 10^-10, 10^-11, 10^-12 M.
Cell cultures: The HEK293 cells are grown in (DMEM31966 glutamax supplemented with 10% FBS (fetal bovine serum) and 1% penicillin G and streptomycin) and incubated at 37°C with 10% CO2 in a humidified atmosphere. The cells were split as follows. HEK293 cells approximately 80% confluent was used. The cells were removed from the bottom of the bottle by removing the media (DMEM31966 glutamax supplemented with 10% FBS and 1% penicillin G and streptomycin), rinsed with 5 mL phosphate buffered saline (PBS) and shaken gently. The PBS was removed and cells were released from the bottom with trypsin (1-2 mL) and incubated for 2-3 min. The flasks were then turned gently to ensure complete release of the cells from the bottom. Then media was added to the cells, (5-8 mL was used to rinse the cells of the bottom, this process was repeated approximately 4 times using the same media). Cell suspension was then transferred to a new bottle (approximately 4 × 10^6 cells per 175 cm^2 flask) and 20 mL media was added. Cells were incubated at 37°C with 10% CO2 in a humidified atmosphere.
Transfection of cells: HEK293 cells were seeded out at the density of 8 × 10^6 cells per 175 cm^2 flask 1 day prior to the transfection. Before transfection of cells, the culture medium was aspirated and half of the standard volume was added. 40 µg receptor-containing plasmid (Neuromedin U receptor 1 (NMUR1) or Neuromedin U receptor 2 (NMUR2)) or "empty" vector plasmid (pcDNA3), as a negative control, was mixed with 60 µL […] CaCl2 and Tris-EDTA (TE) buffer (10 mM tris(hydroxymethyl)aminomethane hydrochloride (Tris HCl), 1 mM ethylenedinitrilotetraacetic acid (EDTA), pH 7.5) to a total volume of 480 µL. The mixture was added drop-wise to another tube containing 480 µL 2 × HEPES buffered saline (HBS buffer) (280 mM NaCl, 50 mM 4-(2-Hydroxyethyl)piperazine-1-ethanesulfonic acid (HEPES), 1.5 mM NaHPO4, pH 7.2) and left for 45 min at room temperature for DNA precipitation. Afterwards, the precipitate was added carefully to the cells and cells were incubated for 5 hours at normal culture conditions. The transfection was stopped by change of the DNA-containing medium with 20 mL of fresh cell culture medium.
Seeding of the cells in 96 well plates: One day after transfection, cells were harvested using trypsin as described above. The cells were seeded in a poly-D-lysine coated clear 96 well plate. 100 µL cell suspension 350.000 cells/mL was added. 3H-myo-inositol (5µL/mL) was added to each well yielding a concentration of 35000 cells/well. The cells were incubated overnight before assay procedure the following day.
IP3 SPA-ysi assay: The media was removed and the plates were washed with 200 µL of Hank's balanced salt solution (HBSS) (Gibco, Life Technologies). 100 µL of HBSS/10 mM LiCl was added and the plates were incubated 15 min at 37°C. 5 µL ligand was added to each well and the plate was incubated at 37°C for 70-90 min (incubation time was approximately 1 h and 16 min for all plates). The plates were placed on ice and 50 µL formic acid (10 mM) was added to each well. The plates was left on ice for at least 30 min. 20 µL was then transferred to a white 96 well plate and 80 µL yttrium silicate (YSi) SPA-beads RPNQ0010 (Perkin Elmer) solution (0.0125 g/mL) is added to each well. The plates were sealed and shaken on high speed for 30 min, then centrifuged for 5 min at 1500 rpm and counted with 8 hours delay in the top counter. […]

**Q.** `CCCCCCCCCCCCCCCC(=O)N[C@@H](CCC(=O)NCCCC[C@H](NC(=O)[C@H](CCC(N)=O)NC(=O)[C@H](CO)NC(=O)[C@H](C)NC(=O)[C@H](Cc1ccccc1)NC(=O)[C@@H]1CCCN1C(=O)[C@H](CO)NC(=O)[C@H](CCC(N)=O)NC(=O)[C@H](Cc1ccccc1)NC(=O)[C@H](CCC(=O)O)NC(=O)[C@H](CCC(=O)O)NC(=O)[C@H](CC(=O)O)NC(=O)[C@@H](NC(=O)[C@H](CCCNC(=N)N)NC(=O)[C@@H](N)Cc1ccccc1)C(C)C)C(=O)N[C@@H](CCCNC(=N)N)C(=O)NCC(=O)N[C@@H](Cc1ccc(O)cc1)C(=O)N[C@@H](Cc1ccccc1)C(=O)N[C@@H](CC(C)C)C(=O)N[C@@H](Cc1ccccc1)C(=O)N[C@@H](CCCNC(=N)N)C(=O)N1CCC[C@H]1C(=O)N[C@@H](CCCNC(=N)N)C(=O)N[C@@H](CC(N)=O)C(N)=O)C(=O)O` [SEQ ID NO 5] (H-FRVDEEFQSPFASQK([γGlu-Palmitoyl])RGYFLFRPRN-NH2) was tested. Which EC50 did it give?
**A.** 162 nM

**Q.** With `CCCCCCCCCCCCCCCC(=O)N[C@@H](CCC(=O)NCCCC[C@H](NC(=O)[C@H](C)NC(=O)[C@H](Cc1ccccc1)NC(=O)[C@@H]1CCCN1C(=O)[C@H](CO)NC(=O)[C@H](CCC(N)=O)NC(=O)[C@H](Cc1ccccc1)NC(=O)[C@H](CCC(=O)O)NC(=O)[C@H](CCC(=O)O)NC(=O)[C@H](CC(=O)O)NC(=O)[C@@H](NC(=O)[C@H](CCCNC(=N)N)NC(=O)[C@@H](N)Cc1ccccc1)C(C)C)C(=O)N[C@@H](CCC(N)=O)C(=O)N[C@@H](CO)C(=O)N[C@@H](CCCNC(=N)N)C(=O)NCC(=O)N[C@@H](Cc1ccc(O)cc1)C(=O)N[C@@H](Cc1ccccc1)C(=O)N[C@@H](CC(C)C)C(=O)N[C@@H](Cc1ccccc1)C(=O)N[C@@H](CCCNC(=N)N)C(=O)N1CCC[C@H]1C(=O)N[C@@H](CCCNC(=N)N)C(=O)N[C@@H](CC(N)=O)C(N)=O)C(=O)O` [SEQ ID NO 8] (H-FRVDEEFQSPFAK([γGlu-Palmitoyl])QSRGYFLFRPRN-NH2) as the compound, how does the EC50 read?
**A.** 155 nM

**Q.** `CCCCCCCCCCCCCCCC(=O)N[C@@H](CCC(=O)NCCCC[C@H](NC(=O)[C@H](CCC(=O)O)NC(=O)[C@H](CC(=O)O)NC(=O)[C@@H](NC(=O)[C@H](CCCNC(=N)N)NC(=O)[C@@H](N)Cc1ccccc1)C(C)C)C(=O)N[C@@H](Cc1ccccc1)C(=O)N[C@@H](CCC(N)=O)C(=O)N[C@@H](CO)C(=O)N1CCC[C@H]1C(=O)N[C@@H](Cc1ccccc1)C(=O)N[C@@H](C)C(=O)N[C@@H](CO)C(=O)N[C@@H](CCC(N)=O)C(=O)N[C@@H](CO)C(=O)N[C@@H](CCCNC(=N)N)C(=O)NCC(=O)N[C@@H](Cc1ccc(O)cc1)C(=O)N[C@@H](Cc1ccccc1)C(=O)N[C@@H](CC(C)C)C(=O)N[C@@H](Cc1ccccc1)C(=O)N[C@@H](CCCNC(=N)N)C(=O)N1CCC[C@H]1C(=O)N[C@@H](CCCNC(=N)N)C(=O)N[C@@H](CC(N)=O)C(N)=O)C(=O)O` [SEQ ID NO 14] (H-FRVDEK([γGlu-Palmitoyl])FQSPFASQSRGYFLFRPRN-NH2) was tested. Which EC50 did it give?
**A.** 52.8 nM

**Q.** `CCCCCCCCCCCCCCCC(=O)N[C@@H](CCC(=O)NCCCC[C@H](NC(=O)[C@@H](NC(=O)[C@H](CCCNC(=N)N)NC(=O)[C@@H](N)Cc1ccccc1)C(C)C)C(=O)N[C@@H](CCC(=O)O)C(=O)N[C@@H](CCC(=O)O)C(=O)N[C@@H](Cc1ccccc1)C(=O)N[C@@H](CCC(N)=O)C(=O)N[C@@H](CO)C(=O)N1CCC[C@H]1C(=O)N[C@@H](Cc1ccccc1)C(=O)N[C@@H](C)C(=O)N[C@@H](CO)C(=O)N[C@@H](CCC(N)=O)C(=O)N[C@@H](CO)C(=O)N[C@@H](CCCNC(=N)N)C(=O)NCC(=O)N[C@@H](Cc1ccc(O)cc1)C(=O)N[C@@H](Cc1ccccc1)C(=O)N[C@@H](CC(C)C)C(=O)N[C@@H](Cc1ccccc1)C(=O)N[C@@H](CCCNC(=N)N)C(=O)N1CCC[C@H]1C(=O)N[C@@H](CCCNC(=N)N)C(=O)N[C@@H](CC(N)=O)C(N)=O)C(=O)O` [SEQ ID NO 17] (H-FRVK([γGlu-Palmitoyl])EEFQSPFASQSRGYFLFRPRN-NH2) was tested. Which EC50 did it give?
**A.** 50.5 nM

Reference: patent EP2842965A1, “Neuromedin U analogs comprising serum albumin binding amino acid residue” (Gubra ApS, priority 2013, dated 2015)
